Measurements published in patent US9956204B2, “Composition for exterminating scuticociliates in fish including mebendazole” (NATIONAL INSTITUTE OF FISHERIES SCIENCE, priority 2016, dated 2018).

Tests used:
[1] = tested on: scuticociliates; test: Scuticociliates extermination effect of candidate substances in MEM medium; assay type: cell-based; settings: MEM medium
Protocol: CHSE-214 cell line into which scuticociliates were inoculated was cultured in advance. The CHSE-214 cell line was cultured in an incubator using an MEM medium at 22° C. Scuticociliates inoculated into the cell line proliferated for 3 days by which the number reaches to be capable of analyzing in vitro anti-scuticociliates effect. Scuticociliates that feed on the cell line and sufficiently grow were mixed with the candidate substance and the activity of scuticociliates was measured.
In order to analyze the antiparasitic activity of the above 19 types of candidate substances of scuticociliates extermination drugs, scuticociliates were cultured for 3 days, and 100 μl (1×10^5) was dispensed into each well of 96 wells. The candidate substances were diluted by each concentration and the final volume was dispensed into 100 μl. Thereafter, the two were mixed and finally made into 200 μl.

[2] = tested on: scuticociliates; test: Scuticociliates extermination effect of candidate substances in seawater medium; assay type: cell-based; settings: seawater medium; for Survival or Death of scuticociliates (activity and shape, microscope): 4 hour
Protocol: For this, scuticociliates were cultured in CHSE-214 cell line (using MEM medium), and then scuticociliates were collected and centrifuged with sterilized seawater or artificial seawater (20‰) to replace them with a seawater medium. Each of 100 μl (1×10^5) was dispensed into each well of 96 wells, followed by further culture for 30 minutes. The candidate substances diluted in seawater to have a volume of 100 μl per each concentration were mixed with scuticociliates to have the final volume of 200 μl and cultured for 4 hour.

[3] = tested on: scuticociliates; test: Clinical trial: cumulative mortality of olive flounder artificially infected with scuticociliates; assay type: in vivo; settings: observed for 15 days
Protocol: For the artificial infection, 1×10^5 of scuticociliates per fish were intraperitoneally injected into a total of […] juvenile olive flounder (average 10 cm). The experiment was performed by dividing them into 5 groups of every 20 fish per each experiment.

[4] = tested on: scuticociliates; test: Field test of Mebendazole for exterminating scuticociliates in olive flounder farms; assay type: in vivo
Text: The pharmaceutical efficacy was investigated after administering Mebendazole once daily for 5˜7 days to the olive flounder which are infected with scuticociliates in three major domestic olive flounder aquaculture area (Jeju, Wando, Pohang). First, the natural scuticociliates infection rate of each olive flounder farm was investigated, and the efficacy was investigated after administering Mebendazole accordingly. [table]

[5] = in vivo
Protocol: (§1) Mebendazole was orally or immersing administered at a concentration of 100 or 500 mg/kg BW (ppm) to the olive flounder once for 1 hour. After 6 hours, 1 day, 2 days, 7 days and 14 days, a blood chemistry analysis and an immunological analysis were conducted.
(§2) The blood chemistry analysis was conducted using Fuji-Dri Chem 4500 (Fuji company, Japan) to measure hemoglobin (Hb), hematocrit (Ht), glucose (GLU), total protein (TP), total cholesterol (TCHO), GOT/GPT and lactic acid (LDH), etc.

[6] = tested on: lysozyme; settings: in vivo
Protocol: as §1
The immunological analysis was conducted to measure the lysozyme activity of the kidney, spleen and serum (Lange et al., 2001, Parry, R. M. Chandau, R. C. & Shahani, R. M. (1965). A rapid and sensitive assay of muramidase. Proceedings of the Society for Experimental Biology Medicine 119, 384-386). In brief explanation, 100 μl of the prepared plasma was diluted with PBS (pH 6.2) in 2-fold to 4 steps on a 96-well plate and 100 μg of Micrococcus lysodekiticus (Sigma, USA) liquid diluted with PBS (pH 6.2) to 0.4 mg/ml was added to each well. After that, absorbance at 590 nm was measured every 0, 15, 30, 45 and 60 minutes. One unit of lysozyme activity was converted into the amount of a sample that decreases the absorbance 0.001/min.

[7] = within 24~48 hours; cited from earlier work
[8] = Safety test according to field test: blood chemistry in Wando, Pohang and Jeju farms; settings: field application concentration range
Protocol: as §1, §2

For `COC(=O)Nc1nc2ccc(C(=O)c3ccccc3)cc2[nH]1` [Mebendazole], the “killing of scuticociliates compared with the 19 candidate substances” value [1] was “effect of killing scuticociliates at the lowest concentration”, the “Survival or Death of scuticociliates (activity and shape, microscope)” value (“Survival or Death of scuticociliates” below) ([1]; Dosage 10 ppm) was “Survival” and the “Survival or Death of scuticociliates” value ([1]; Dosage 50 ppm) was “Survival”. The “Survival or Death of scuticociliates” value ([1]; Dosage 100 ppm) was “Death”, the “Survival or Death of scuticociliates” value ([1]; Dosage 200 ppm) was “Death” and the “Survival or Death of scuticociliates” value ([1]; Dosage 300 ppm) was “Death”. The “Survival or Death of scuticociliates” value ([1]; Dosage 400 ppm) was “Death”, the “Survival or Death of scuticociliates” value ([1]; Dosage 500 ppm) was “Death” and the “Survival or Death of scuticociliates” value ([1]; Dosage 600 ppm) was “Death”. The “Survival or Death of scuticociliates” value ([1]; Dosage 700 ppm) was “Death”, the “Survival or Death of scuticociliates” value ([1]; Dosage 800 ppm) was “Death” and the “Survival or Death of scuticociliates” value ([1]; Dosage 900 ppm) was “Death”. For the same compound, the “Survival or Death of scuticociliates” value ([1]; Dosage 1000 ppm) was “Death”, the “killing of scuticociliates compared with the 19 candidate substances” value [2] was “most effectively kills scuticociliates” and the “Survival or Death of scuticociliates” value ([2]; Dosage 10 ppm) was “Survival”. The “Survival or Death of scuticociliates” value ([2]; Dosage 50 ppm) was “Survival”, the “Survival or Death of scuticociliates” value ([2]; Dosage 100 ppm) was “Death” and the “Survival or Death of scuticociliates” value ([2]; Dosage 200 ppm) was “Death”. The “Survival or Death of scuticociliates” value ([2]; Dosage 300 ppm) was “Death”, the “Survival or Death of scuticociliates” value ([2]; Dosage 400 ppm) was “Death” and the “Survival or Death of scuticociliates” value ([2]; Dosage 500 ppm) was “Death”. The “Survival or Death of scuticociliates” value ([2]; Dosage 600 ppm) was “Death”, the “Survival or Death of scuticociliates” value ([2]; Dosage 700 ppm) was “Death” and the “Survival or Death of scuticociliates” value ([2]; Dosage 800 ppm) was “Death”. For the same compound, the “Survival or Death of scuticociliates” value ([2]; Dosage 900 ppm) was “Death”, the “Survival or Death of scuticociliates” value ([2]; Dosage 1000 ppm) was “Death” and the cumulative mortality rate ([3]; immersion administration 100 ppm for 1 hour) was “remarkably decreased”. For the same compound, the cumulative mortality rate ([3]; oral administration once, feed with 200 ppm) was “remarkably decreased”, the “infection of scuticociliates after administration” value (“infection of scuticociliates” below) ([4]; Juju farm, once daily for 5 days, infection rate before 50%) was “no infection of scuticociliates was detected” and the “infection of scuticociliates” value ([4]; Pohang farm, once daily for 7 days, infection rate before 70%) was “no infection of scuticociliates was detected”. For the same compound, the “infection of scuticociliates” value ([4]; Wando farm, once daily for 7 days, infection rate before 70%) was “no infection of scuticociliates was detected”, the MCHC numerical values [5] was “did not show any significant differences” and the “concentration of Hb in the blood” value [5] was “slightly increases”. For the same compound, the “effect on activity of lysozyme in serum, spleen, kidney” value [6] was “does not affect the activity of lysozyme”, the “oral dose excreted in the urine” value [7] was 10% and the “liver index (GOT and GPT) of infected fish after administration” value [8] was “lowered to the normal range”.

In the case of `c1ccc(C2CN3CCSC3=N2)cc1` (stereo not drawn) [Tetramisole], the “Survival or Death of scuticociliates” value ([1]; Dosage 500 ppm) is reported as “Survival”, the “Survival or Death of scuticociliates” value ([1]; Dosage 1000 ppm) is reported as “Survival” and the “Survival or Death of scuticociliates” value ([1]; Dosage 1500 ppm) is reported as “Survival”. The “Survival or Death of scuticociliates” value ([1]; Dosage 2000 ppm) was “Survival”, the “Survival or Death of scuticociliates” value ([1]; Dosage 2500 ppm) was “Survival” and the “Survival or Death of scuticociliates” value ([1]; Dosage 3000 ppm) was “Survival”. For the same compound, the “Survival or Death of scuticociliates” value ([1]; Dosage 3500 ppm) was “Survival”, the “Survival or Death of scuticociliates” value ([1]; Dosage 4000 ppm) was “Survival” and the “Survival or Death of scuticociliates” value ([2]; Dosage 500 ppm) was “Survival”. The “Survival or Death of scuticociliates” value ([2]; Dosage 1000 ppm) was “Survival”, the “Survival or Death of scuticociliates” value ([2]; Dosage 1500 ppm) was “Survival” and the “Survival or Death of scuticociliates” value ([2]; Dosage 2000 ppm) was “Survival”. For the same compound, the “Survival or Death of scuticociliates” value ([2]; Dosage 2500 ppm) was “Survival”, the “Survival or Death of scuticociliates” value ([2]; Dosage 3000 ppm) was “Survival” and the “Survival or Death of scuticociliates” value ([2]; Dosage 3500 ppm) was “Survival”. The “Survival or Death of scuticociliates” value ([2]; Dosage 4000 ppm) was “Survival”.

For `COP(=O)(OC)C(O)C(Cl)(Cl)Cl` (stereo not drawn) [Trichlorfon], the “Survival or Death of scuticociliates” value ([1]; Dosage 200 ppm) was “Survival”, the “Survival or Death of scuticociliates” value ([1]; Dosage 500 ppm) was “Survival” and the “Survival or Death of scuticociliates” value ([1]; Dosage 600 ppm) was “Δ”. The “Survival or Death of scuticociliates” value ([1]; Dosage 700 ppm) was “Death”, the “Survival or Death of scuticociliates” value ([1]; Dosage 800 ppm) was “Death” and the “Survival or Death of scuticociliates” value ([1]; Dosage 900 ppm) was “Death”. For the same compound, the “Survival or Death of scuticociliates” value ([1]; Dosage 1000 ppm) was “Death”, the “Survival or Death of scuticociliates” value ([2]; Dosage 10 ppm) was “Survival” and the “Survival or Death of scuticociliates” value ([2]; Dosage 50 ppm) was “Survival”. The “Survival or Death of scuticociliates” value ([2]; Dosage 100 ppm) was “Survival”, the “Survival or Death of scuticociliates” value ([2]; Dosage 200 ppm) was “Survival” and the “Survival or Death of scuticociliates” value ([2]; Dosage 500 ppm) was “Survival”. For the same compound, the “Survival or Death of scuticociliates” value ([2]; Dosage 600 ppm) was “Death” and the “Survival or Death of scuticociliates” value ([2]; Dosage 700 ppm) was “Death”.
